Results: ChEMBL document CHEMBL5154804, “Species-Selective Targeting of Fungal Hsp90: Design, Synthesis, and Evaluation of Novel 4,5-Diarylisoxazole Derivatives for the Combination Treatment of Azole-Resistant Candidiasis” (J Med Chem, 2022)
Active and inactive are the calls of the source. The calls are words filed in the database; no cut-off is given here.

What was measured:
[1] = system: Candida albicans; test: Antibiofilm activity against Candida albicans 904 assessed as inhibition of […] metabolism within the biofilm after 24 hrs by XTT reduction assay; assay type: functional
[2] = system: Candida albicans; test: Induction of morphological changes in Candida albicans 904 assessed as hyphal formation by measuring EFG1 level incubated for 4 hrs in presence of fluconazole; assay type: functional, organism-based
[3] = Metabolic stability in human liver microsomes assessed as intrinsic clearance in presence of NADPH cofactor under shaking condition for 10 mins measured after 5 to 60 mins by LC-MS/MS analysis; assay type: ADME, Microsome; settings: time 15-70 min
[4] = system: Candida albicans; test: Antifungal activity against fluconazole-resistant Candida albicans 103 assessed as inhibition of fungal growth by checker board microdilution assay; assay type: functional
[5] = system: Candida albicans; test: Potentiation of fluconazole-induced antifungal activity against fluconazole-resistant Candida albicans 100 assessed as fluconazole MIC by checker board microdilution assay; assay type: functional
[6] = system: Candida albicans; test: Synergistic antifungal activity against fluconazole-resistant Candida albicans 311 assessed as inhibition of fungal growth in presence of fluconazole by checker board microdilution assay; assay type: functional
[7] = Metabolic stability in human liver microsomes assessed as microsomal intrinsic clearance in presence of NADPH cofactor under shaking condition for 10 mins measured after 5 to 60 mins by LC-MS/MS analysis; assay type: ADME, Microsome; settings: time 15-70 min
[8] = system: Candida albicans; test: Ratio of MFC for Candida albicans 904 to MIC for Candida albicans 904 in presence of fluconazole; assay type: functional
[9] = Stability in human plasma assessed as compound remaining at 120 mins by LC-MS/MS analysis; assay type: ADME, cell-free; settings: read-out: Stability
[10] = system: Candida albicans; test: Synergistic antibiofilm activity in Candida albicans 904 assessed as downregulation of TEC1 at 32 ug/ml incubated for 24 hrs in presence of fluconazole by RT-PCR analysis; assay type: functional, organism-based; settings: dose 32.0 µg/ml
[11] = system: MCF7; test: Cytotoxicity against human MCF7 cell assessed as inhibition of cell growth after 24 hrs by MTT assay; assay type: functional, cell-based; settings: MCF7, 24 h
[12] = system: Candida albicans; test: Antifungal activity against fluconazole-resistant Candida albicans 901 assessed as inhibition of fungal growth by checker board microdilution assay; assay type: functional
[13] = system: Candida albicans; test: Synergetic antifungal activity against fluconazole-resistant Candida albicans 901 assessed as fractional inhibitory concentration index in presence of fluconazole by checker board microdilution assay; assay type: functional
[14] = system: Candida albicans; test: Synergetic antifungal activity against fluconazole-resistant Candida albicans 311 assessed as fractional inhibitory concentration index in presence of fluconazole by checker board microdilution assay; assay type: functional
[15] = system: Candida albicans; test: Synergistic antifungal activity against fluconazole-resistant Candida albicans 901 assessed as inhibition of fungal growth in presence of fluconazole by checker board microdilution assay; assay type: functional
[16] = Cytotoxicity against human THLE-2 cell assessed as inhibition of cell growth after 24 hrs by MTT assay; assay type: toxicity, cell-based; settings: THLE-2 cells
[17] = system: Candida albicans; test: Potentiation of fluconazole-induced antifungal activity against fluconazole-resistant Candida albicans 904 assessed as fluconazole MIC by checker board microdilution assay; assay type: functional
[18] = system: Candida albicans; test: Antibiofilm activity against Candida albicans 904 assessed as inhibition of […] metabolism within the biofilm after 48 hrs by XTT reduction assay; assay type: functional
[19] = system: Candida albicans; test: Synergistic antibiofilm activity against Candida albicans 904 assessed as inhibition of […] metabolism within the biofilm in presence of fluconazole after 48 hrs by XTT reduction assay; assay type: functional
[20] = system: Candida albicans; test: Synergistic antifungal activity against fluconazole-resistant Candida albicans 904 assessed as inhibition of fungal growth in presence of fluconazole by checker board microdilution assay; assay type: functional
[21] = system: Candida albicans; test: Synergistic antibiofilm activity against Candida albicans 904 assessed as inhibition of […] metabolism within the biofilm in presence of fluconazole after 24 hrs by XTT reduction assay; assay type: functional
[22] = system: HepG2; test: Cytotoxicity against human HepG2 cell assessed as inhibition of cell growth after 24 hrs by MTT assay; assay type: functional, cell-based; settings: HepG2, 24 h
[23] = system: Candida albicans; test: Synergetic antifungal activity against fluconazole-resistant Candida albicans 100 assessed as fractional inhibitory concentration index in presence of fluconazole by checker board microdilution assay; assay type: functional
[24] = system: Candida albicans; test: Induction of morphological changes in Candida albicans 904 assessed as hyphal formation by measuring CPH1 level incubated for 4 hrs in presence of fluconazole; assay type: functional, organism-based
[25] = molecular target: T1, CYP1A2 (Homo sapiens, UniProt P05177); test: Inhibition of CYP1A2 in human liver microsome at 10 uM using phenacetin as substrate incubated for 10 mins in presence of NADPH cofactor by LC-MS/MS analysis; assay type: ADME; settings: liver microsomes, probe phenacetin
T1 sequence (P05177 whole entry): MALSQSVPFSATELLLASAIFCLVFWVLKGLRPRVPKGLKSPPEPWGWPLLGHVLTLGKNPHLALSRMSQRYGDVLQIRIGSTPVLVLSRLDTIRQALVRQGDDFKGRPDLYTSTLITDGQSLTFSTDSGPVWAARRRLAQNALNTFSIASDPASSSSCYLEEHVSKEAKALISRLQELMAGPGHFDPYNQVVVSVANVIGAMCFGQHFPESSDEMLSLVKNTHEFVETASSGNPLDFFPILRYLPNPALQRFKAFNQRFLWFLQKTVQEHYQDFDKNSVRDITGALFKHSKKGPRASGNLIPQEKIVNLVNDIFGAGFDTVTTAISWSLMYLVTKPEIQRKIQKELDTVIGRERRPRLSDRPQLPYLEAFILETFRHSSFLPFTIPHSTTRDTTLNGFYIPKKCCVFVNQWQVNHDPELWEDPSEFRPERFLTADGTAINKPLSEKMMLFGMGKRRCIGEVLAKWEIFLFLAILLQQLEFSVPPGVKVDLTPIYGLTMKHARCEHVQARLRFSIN

[26] = system: Candida albicans; test: Potentiation of fluconazole-induced antifungal activity against fluconazole-resistant Candida albicans 311 assessed as fluconazole MIC by checker board microdilution assay; assay type: functional
[27] = system: Candida albicans; test: Synergistic antibiofilm activity in Candida albicans 904 assessed as downregulation of CPH1 at 32 ug/ml incubated for 24 hrs in presence of fluconazole by RT-PCR analysis; assay type: functional, organism-based; settings: dose 32.0 µg/ml
[28] = system: Candida albicans; test: Antifungal activity against fluconazole-resistant Candida albicans 100 assessed as inhibition of fungal growth by checker board microdilution assay; assay type: functional
[29] = system: Candida albicans; test: Potentiation of fluconazole-induced antifungal activity against fluconazole-resistant Candida albicans 103 assessed as fluconazole MIC by checker board microdilution assay; assay type: functional
[30] = Cytotoxicity against mouse BV-2 cell assessed as inhibition of cell growth after 24 hrs by MTT assay; assay type: toxicity, cell-based; settings: BV-2 cells
[31] = system: Candida albicans; test: Potentiation of fluconazole-induced antifungal activity against fluconazole-resistant Candida albicans 632 assessed as fluconazole MIC by checker board microdilution assay; assay type: functional
[32] = molecular target: CYP2C19 (Homo sapiens, UniProt P33261); test: Inhibition of CYP2C19 in human liver microsome at 10 uM using S-mephenytoin as substrate incubated for 10 mins in presence of NADPH cofactor by LC-MS/MS analysis; assay type: ADME; settings: liver microsomes, probe S-mephenytoin
[33] = system: Candida albicans; test: Synergistic antifungal activity against fluconazole-resistant Candida albicans 632 assessed as inhibition of fungal growth in presence of fluconazole by checker board microdilution assay; assay type: functional
[34] = system: Candida albicans; test: Synergistic antibiofilm activity in Candida albicans 904 assessed as downregulation of ALS3 at 32 ug/ml incubated for 24 hrs in presence of fluconazole by RT-PCR analysis; assay type: functional, organism-based; settings: dose 32.0 µg/ml
[35] = Cytotoxicity against human BEAS-2B cell assessed as inhibition of cell growth after 24 hrs by MTT assay; assay type: toxicity, cell-based; settings: BEAS-2B cells

Chain of CYP2C19 (P33261 whole entry): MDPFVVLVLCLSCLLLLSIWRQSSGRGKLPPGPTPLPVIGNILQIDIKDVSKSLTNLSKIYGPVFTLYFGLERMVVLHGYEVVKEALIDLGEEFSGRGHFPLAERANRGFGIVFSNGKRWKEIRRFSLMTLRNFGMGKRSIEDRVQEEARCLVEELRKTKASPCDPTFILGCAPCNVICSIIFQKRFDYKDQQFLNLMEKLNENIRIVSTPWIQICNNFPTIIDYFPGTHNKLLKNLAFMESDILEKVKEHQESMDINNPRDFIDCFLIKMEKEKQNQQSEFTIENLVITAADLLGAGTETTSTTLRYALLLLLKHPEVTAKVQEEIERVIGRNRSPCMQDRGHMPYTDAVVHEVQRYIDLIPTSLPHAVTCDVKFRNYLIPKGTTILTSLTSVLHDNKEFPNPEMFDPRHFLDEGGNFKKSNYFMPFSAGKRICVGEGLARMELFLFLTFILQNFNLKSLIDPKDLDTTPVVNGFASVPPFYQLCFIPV

Compound | MIC50 [1] [µg/mL] | Activity [2] | CLint [3] [mL/min/kg] | MIC80 [4] [µg/mL] | MIC80 [5] [µg/mL] | MIC80 [6] [µg/mL] | CLint [7] [µL/min/mg] | Ratio [8] | remaining at 2 h [9] [%] | Activity [10] | IC50 [11] [µM] | MIC80 [12] [µg/mL] | fractional inhibitory concentration index (FICI) [13] | fractional inhibitory concentration index (FICI) [14] | MIC80 [15] [µg/mL] | IC50 at 24 h [16] [µM] | MIC80 [17] [µg/mL] | MIC50 [18] [µg/mL] | MIC50 [19] [µg/mL] | MIC80 [20] [µg/mL] | further results
CNC(=O)c1noc(-c2cc(-c3ccc(C)cc3)c(O)cc2O)c1-c1ccc(CN2CCOCC2)cc1 | > 64 | Active | 50.3 | > 64 | 2 | 2 | 55.9 | 2 | 92.8 | Active | 21.5 | > 64 | 0.039 | 0.062 | 0.5 | 10.6 | 1 | > 64 | 4 | 0.25 | MIC50 [21]: 1 µg/mL; IC50 [22]: > 50 µM; fractional inhibitory concentration index (FICI) [23]: 0.035; Activity [24]: Active; inhibition at 10 min, 10 µM [25]: 9.9%; MIC80 [26]: 2 µg/mL; Activity [27]: Active; MIC80 [28]: > 64 µg/mL; MIC80 [29]: 2 µg/mL; IC50 at 24 h [30]: 11.1 µM; MIC80 [31]: 0.5 µg/mL; inhibition at 10 min, 10 µM [32]: 18.6%; MIC80 [33]: 0.5 µg/mL; Activity [34]: Active; IC50 at 24 h [35]: 12.2 µM
CCNC(=O)c1noc(-c2cc(-c3ccc(C)cc3)c(O)cc2O)c1-c1ccc(CN2CCOCC2)cc1 | > 64 | Active | 38.9 | > 64 | 2 | 0.25 | 43.2 | 1 | 110 | Active | 34.1 | > 64 | 0.018 | 0.035 | 0.125 | 7.15 | 2 | > 64 | 1 | 0.25 | MIC50 [21]: 0.25 µg/mL; IC50 [22]: 17.4 µM; fractional inhibitory concentration index (FICI) [23]: 0.033; Activity [24]: Active; inhibition at 10 min, 10 µM [25]: 8%; MIC80 [26]: 2 µg/mL; Activity [27]: Active; MIC80 [28]: > 64 µg/mL; MIC80 [29]: 2 µg/mL; IC50 at 24 h [30]: 10.3 µM; MIC80 [31]: 2 µg/mL; inhibition at 10 min, 10 µM [32]: 22.2%; MIC80 [33]: 0.125 µg/mL; Activity [34]: Active; IC50 at 24 h [35]: > 50 µM
